Reference: patent US8236756B2, “Prodrugs cleavable by CD26” (Consejo Superior de Investigaciones Clentificas (CSIC), priority 2003, dated 2012)

Experiments:
[1] = target: T1, purified CD26 (Homo sapiens, UniProt P27487); assay: Conversion of peptide prodrugs to parent compound by purified CD26 (HPLC); format: biochemical; settings: for Conversion % to parent compound by purified CD26, 1 h / Conversion % to parent compound by purified CD26, 4 h / Conversion % to parent compound by purified CD26, 24 h: Table 1
T1 construct: made in house
Procedure: To reveal whether CD26 recognizes such synthetic di/tripeptide derivatives of lipophilic nucleoside analogues as a substrate, 50 μM CAM-405 or CAM-431 was exposed to 5.7 mUnits of purified CD26, and the conversion of CAM-405 or CAM-431 to respectively CAM-212 or CAM-403 (Val-NAP-TSAO) was recorded in function of incubation time by HPLC analysis. […] Within the first 10 min of the reaction, at least 20% of CAM-405 had been converted to CAM-212, fifty percent of the TSAO dipeptide derivative was converted to CAM-212 within 30 min of the reaction and ˜67% of CAM-405 was hydrolyse after 60 min. Thus, the reaction rate started already to slow down after the first 10 min of drug exposure (FIG. 2). Most likely, the release of the reaction product Val-Pro dose-dependently feed-back inhibited the CD26-catalysed dipeptidyl-peptidase reaction. […] Thus, in the presence of 50 μM CAM-405, hydrolysis of 50% of CAM-405 to CAM-212 results in the appearance of 25 μM Val-Pro, that is a concentration that (feed-back) inhibits the CD26 reaction by ˜50%. These findings explain why the CD26-catalysed reaction levels-off shortly after the start of the exposure of the drug to CD26. […] Thus, a further level of modulation of the rate of prodrug release can be introduced by choosing a dipeptide moiety that competes for the active site of CD26, until the dipeptide has diffused from the tissue wherein CD26 is present. The inhibitory activity of any dipeptide can be evaluated by the above mentioned assay.
The conversion rate in function of time is given in Table 1 for NAP-TSAO-dipeptides where the dipeptide consists of: Val-Pro, Val-D-Pro, Asp-Pro, Lys-Pro, Tyr-Pro, Gly-Pro, Val-4-hydroxyPro, Gly-3,4-dihydroxyPro, but also Val-Gly, Val-Ala, Val-Leu and Val-Phe. It is clear that the conversion rate to the parent NAP-TSAO differs depending the nature of the dipeptide. Also, when the terminal amine of the dipeptide has been blocked by a lipophilic group (i.e. methyl, Z or Fmoc), the prodrug looses measurable substrate activity for CD26.
The conversion rate in function of time is given in Table 2 for tetrapeptide NAP-TSAO compounds where the tetrapeptide consists of: Val-Pro-Val-Pro [SEQ ID no:6] (CAM 467), Val-Ala-Val-Pro [SEQ ID no:7] (CAM 473) or Lys-Pro-Asp-Pro [SEQ ID no:8] (CAM 477). […] Only traces of dipeptide prodrug (CAM 405) is seen as intermediate in the conversion of the tetrapeptide CAM 473 to NAP-TSAO.
All enzyme activity assays were performed in Eppendorf tubes on a heating block at 37° C. To each tube were added 32 μl CD26 (at a final concentration of 1.5 milliUnits) or 10 μl foetal bovine serum (BS) (final concentration: 2.5% BS in PBS; preheated at 56° C. for 30 min) or 10 μl human serum (HS) (final concentration: 2.5% HS in PBS), 40 μl of appropriate concentrations of inhibitor (Diprotin A) solution in PBS (for the exact concentrations, see the legend to FIG. 5), CAM-405 (the substrate of the reaction) at […] (final concentration) and PBS to reach a total volume of 400 μl. The pH of the reaction mixture was 7.5, which is virtually identical to the physiological pH of plasma. The reaction was started by the addition of the enzyme or serum and carried out at 37° C. After 5 hr, 100 μl reaction mixture was taken from the Eppendorf tube and added to 200 μl cold methanol to precipitate the proteins. After 10 min standing on ice, the contents of the tubes were centrifuged and the supernatants analysed by HPLC on a reverse phase column (RP-8, Merck Laboratories). CAM-405 was separated from CAM-212 (the product of the reaction) by a gradient of 50 mM sodium phosphate+5 mM heptane sulfonic acid pH 3.2 (Buffer A) and acetonitrile (Buffer B) as follows: Buffer A: 98%+2% Buffer B, 2 min; linear gradient to 20% Buffer. […]

[2] = Solubility in Milli-Q water; format: physicochemical; settings: 1 mg/ml in Milli-Q water; 2 × 10 sec sonication, 4 days shaking, room temperature; centrifugation, U.V. spectrum
Text: It is also clear that the nature of the dipeptide moiety present on NAP-TSAO markedly affect prodrug solubility in water.

[3] = Conversion of prodrugs to parent compound by human serum diluted in PBS; format: in vitro ADME; settings: 50 μM; 20% human serum in PBS (FIG. 6)
Procedure: Human and bovine serum were incubated for 3 hr, 6 hr and/or 24 hr at 37° C. in the presence of 50 μM CAM-405. The sera were diluted in PBS at a final concentration of 0.5, 1, 2.5 or 5%. […] The longer the incubation time, and the higher the serum concentration used, the faster the conversion of CAM-405 to CAM-212 occurred (FIG. 4). As also noted for CD26, HS- and BS-catalysed reaction slowed down in function of time, and was not linearly proportional with serum concentration (FIG. 4). These findings provide again evidence for a pronounced feed-back inhibition of dipeptidyl-peptidase activity in human and bovine serum by the released Val-Pro dipeptide. HS was more efficient in converting CAM-405 to CAM-212 than BS (FIG. 4). Since 1% HS is able to hydrolyse ˜20% of 50 μM CAM-405 within 3 hrs of incubation, it could be calculated that undiluted serum would have been able to convert this prodrug amount to its parent compound at a hundred fold higher speed, that is, within 1.8 min, provided that no feed-back inhibition would have occurred (as expected in the intact organism where release of Pro-Val would immediately result in disappearance from the plasma due to several mechanisms including organ uptake, renal excretion, etc.).
Only a very limited amount of NAP-TSAO (but not D-Pro-NAP-TSAO) had been detected (FIG. 6).
Ten percent BS or HS converted 40 to 70% of PI-2 to PI-1 in one hour (FIG. 10). Two percent BS and HS converted PI-2 to PI-1 by 8% and 25%, respectively. After 4 hrs, 35% and 95% of compound was hydrolyzed by BS and HS, respectively (FIG. 11).
The TSAO derivatives depicted in FIG. 1 can be synthesised as described below. GlyPro-pNA (GP-pNA), Diprotin A and Val-Pro were purchased from Sigma-Aldrich (Bornem, Belgium). CD26 was purified as described before [De Meester et al. J. Immunol. Methods (1996), 189: 99-105]. Foetal bovine serum (FBS) was obtained from Integro (Dieren, The Netherlands). Human serum represented a pooled serum that was derived from 10 healthy volunteers (blood donors). Human lymphocyte CEM cells were derived from the ATCC (Rockville, Md.).

[4] = Table 2, purified CD26 1.5 mUnits, 1 h
[5] = Table 2, purified CD26 1.5 mUnits, 4 h
[6] = Table 2, purified CD26 1.5 mUnits, 24 h

T1 sequence (P27487 whole entry): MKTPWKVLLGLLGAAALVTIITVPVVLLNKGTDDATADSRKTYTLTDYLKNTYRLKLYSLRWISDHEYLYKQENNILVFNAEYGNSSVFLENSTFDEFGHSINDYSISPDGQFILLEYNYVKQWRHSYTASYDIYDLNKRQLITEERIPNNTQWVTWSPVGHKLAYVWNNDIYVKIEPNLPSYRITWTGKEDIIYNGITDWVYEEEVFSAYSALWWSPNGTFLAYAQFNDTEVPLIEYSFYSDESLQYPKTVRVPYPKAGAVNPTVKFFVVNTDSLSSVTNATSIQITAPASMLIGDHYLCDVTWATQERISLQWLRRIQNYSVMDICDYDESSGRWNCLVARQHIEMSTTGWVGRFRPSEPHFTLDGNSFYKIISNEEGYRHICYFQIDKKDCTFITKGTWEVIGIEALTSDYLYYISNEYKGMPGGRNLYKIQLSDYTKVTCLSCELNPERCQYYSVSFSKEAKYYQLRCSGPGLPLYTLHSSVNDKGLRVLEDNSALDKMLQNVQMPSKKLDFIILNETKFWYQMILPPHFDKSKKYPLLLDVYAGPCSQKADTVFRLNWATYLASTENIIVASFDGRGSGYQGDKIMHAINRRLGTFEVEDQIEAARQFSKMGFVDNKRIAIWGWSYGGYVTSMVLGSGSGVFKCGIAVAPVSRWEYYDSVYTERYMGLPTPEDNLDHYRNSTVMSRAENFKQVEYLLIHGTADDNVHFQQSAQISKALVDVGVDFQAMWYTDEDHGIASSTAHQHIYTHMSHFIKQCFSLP

| Conversion % to parent compound by purified CD26, 1 h ([1]; purified CD26 1.5 mUnits, 1 h) [%] | Conversion % to parent compound by purified CD26, 4 h ([1]; purified CD26 1.5 mUnits, 4 h) [%] | Conversion % to parent compound by purified CD26, 24 h ([1]; purified CD26 1.5 mUnits, 24 h) [%] | Conversion / substrate activity with purified CD26, in words [1] | Structure (SMILES) | further results |
| --- | --- | --- | --- | --- | --- |
| 0 | 6.5 | 35 |  | Cc1cn(C2OC(CO[Si](C)(C)C(C)(C)C)C3(OS(=O)(=O)C=C3N)C2O[Si](C)(C)C(C)(C)C)c(=O)n(CCCNC(=O)[C@H](C)NC(=O)[C@@H](N)C(C)C)c1=O (stereo partly drawn) [CAM-424, H-Val-Ala-NAP-TSAO] | % conversion to parent compound by purified CD26, 1 h [1, 4]: 0%; % conversion to parent compound by purified CD26, 4 h [1, 5]: 6.5%; % conversion to parent compound by purified CD26, 24 h [1, 6]: 35%; Spectrum (~265 nm) [2]: 0.650 |
| 5 | 20 | 58 |  | Cc1cn(C2OC(CO[Si](C)(C)C(C)(C)C)C3(OS(=O)(=O)C=C3N)C2O[Si](C)(C)C(C)(C)C)c(=O)n(CCCNC(=O)[C@@H]2CCCN2C(=O)CN)c1=O (stereo partly drawn) [CAM-458, H-Gly-Pro-NAP-TSAO] |  |
|  |  |  |  | Cc1cn(C2OC(CO[Si](C)(C)C(C)(C)C)C3(OS(=O)(=O)C=C3N)C2O[Si](C)(C)C(C)(C)C)c(=O)n(CCCNC(=O)C2CCCN2C(=O)C(NC(=O)C2CCCN2C(=O)C(NC(=O)OCc2ccccc2)C(C)C)C(C)C)c1=O (stereo not drawn) [CAM-466, Z-Val-Pro-Val-Pro-NAP-TSAO] | % conversion to parent compound by purified CD26, 1 h [1, 4]: 0%; % conversion to parent compound by purified CD26, 4 h [1, 5]: 0%; % conversion to parent compound by purified CD26, 24 h [1, 6]: 0% |
|  |  |  | clearly occurs in two steps | Cc1cn(C2OC(CO[Si](C)(C)C(C)(C)C)C3(OS(=O)(=O)C=C3N)C2O[Si](C)(C)C(C)(C)C)c(=O)n(CCCNC(=O)C2CCCN2C(=O)C(CC(=O)O)NC(=O)C2CCCN2C(=O)C(N)CCCCN)c1=O (stereo not drawn) [CAM-477, H-Lys-Pro-Asp-Pro-NAP-TSAO] | % conversion to parent compound by purified CD26, 1 h [1, 4]: 2.1%; % conversion to parent compound by purified CD26, 4 h [1, 5]: 6.0%; % conversion to parent compound by purified CD26, 24 h [1, 6]: 26%; % conversion to dipeptide intermediate by purified CD26, 1 h ([1]; Table 2 footnote a, purified CD26 1.5 mUnits, 1 h): 88%; % conversion to dipeptide intermediate by purified CD26, 4 h ([1]; Table 2 footnote a, purified CD26 1.5 mUnits, 4 h): 86%; % conversion to dipeptide intermediate by purified CD26, 24 h ([1]; Table 2 footnote a, purified CD26 1.5 mUnits, 24 h): 74% |
|  |  |  |  | Cc1cn([C@@H]2O[C@H](CO[Si](C)(C)C(C)(C)C)[C@@]3(OS(=O)(=O)C=C3N)[C@H]2O[Si](C)(C)C(C)(C)C)c(=O)n(C)c1=O [m-3T-TSAO, 3-methyl-TSAO-T, reference compound] | Spectrum (~265 nm) [2]: 0.100 |
| 0 | 0 | 0 | completely lacked substrate activity | CNC(C(=O)N1CCCC1C(=O)NC(C(=O)NCCCn1c(=O)c(C)cn(C2OC(CO[Si](C)(C)C(C)(C)C)C3(OS(=O)(=O)C=C3N)C2O[Si](C)(C)C(C)(C)C)c1=O)C(C)C)C(C)C (stereo not drawn) [CAM-407, Me-NH-Val-Pro-Val-NHP-TSAO] |  |
|  |  |  | complete conversion within 1 hr | CC(C)[C@H](N)C(=O)N1CCC[C@H]1C(=O)Nc1ccc2ncccc2c1 [CAM-475, H-Val-Pro-6-Aminoquinoline] | % conversion to parent compound by purified CD26, 1 h ([1]; Table 5, purified CD26 1.5 mUnits, 1 h): 99%; % conversion to parent compound by purified CD26, 4 h ([1]; Table 5, purified CD26 1.5 mUnits, 4 h): 100%; % conversion to parent compound by purified CD26, 24 h ([1]; Table 5, purified CD26 1.5 mUnits, 24 h): 100% |
| 0 | 0 | 0 |  | Cc1cn(C2OC(CO[Si](C)(C)C(C)(C)C)C3(OS(=O)(=O)C=C3N)C2O[Si](C)(C)C(C)(C)C)c(=O)n(CCCNC(=O)C(Cc2ccccc2)NC(=O)C(N)C(C)C)c1=O (stereo not drawn) [CAM-428, H-Val-Phe-NAP-TSAO] | Conversion by 20% human serum, in words [3]: convert to a limited extent |
|  | 51 | ~70 | hydrolyse by CD26 | Cc1cn(C2OC(CO[Si](C)(C)C(C)(C)C)C3(OS(=O)(=O)C=C3N)C2O[Si](C)(C)C(C)(C)C)c(=O)n(CCCNC(=O)C(NC(=O)C2CCCN2C(=O)C(N)C(C)C)C(C)C)c1=O (stereo not drawn) [CAM-431, H-Val-Pro-Val-NAP-TSAO] | Conversion by 20% human serum, in words [3]: very efficiently converted predominantly to Val-TSAO |
| 0 | 0 | 0 |  | Cc1cn(C2OC(CO[Si](C)(C)C(C)(C)C)C3(OS(=O)(=O)C=C3N)C2O[Si](C)(C)C(C)(C)C)c(=O)n(CCCNC(=O)C(CC(C)C)NC(=O)C(N)C(C)C)c1=O (stereo not drawn) [CAM-426, H-Val-Leu-NAP-TSAO] | Conversion by 20% human serum, in words [3]: convert to a limited extent |

| Structure (SMILES) | Conversion % to parent compound by purified CD26, 1 h ([1]; purified CD26 1.5 mUnits, 1 h) [%] | Conversion % to parent compound by purified CD26, 4 h ([1]; purified CD26 1.5 mUnits, 4 h) [%] | Conversion % to parent compound by purified CD26, 24 h ([1]; purified CD26 1.5 mUnits, 24 h) [%] | Conversion / substrate activity with purified CD26, in words [1] | further results |
| --- | --- | --- | --- | --- | --- |
| Cc1cn(C2OC(CO[Si](C)(C)C(C)(C)C)C3(OS(=O)(=O)C=C3N)C2O[Si](C)(C)C(C)(C)C)c(=O)n(CCCNC(=O)[C@@H]2CCCN2C(=O)[C@@H](N)Cc2ccc(O)cc2)c1=O (stereo partly drawn) [CAM-456, H-Tyr-Pro-NAP-TSAO] | 43 | 66 | 79 |  |  |
